According to patent publication US7851623B2, “Chemical process” (AstraZeneca AB, priority 2006, dated 2010):

Columns and labels:
tumour models = settings: once-daily oral administration; cited from earlier work
Calu-6 tumour xenograft = test: in vivo solid tumour model (WO 00/47212), Calu-6 tumour xenograft growth; settings: once-daily oral, 28 days
HUVEC [1] = test: HUVEC assay, basal endothelial cell proliferation; assay type: cell-based; settings: Homo sapiens, basal (unstimulated) proliferation, read-out: IC50 for inhibition of basal endothelial cell proliferation
HUVEC [2] = test: HUVEC assay, VEGF-stimulated endothelial cell proliferation; assay type: cell-based; settings: Homo sapiens, read-out: IC50 for inhibition of VEGF-stimulated endothelial cell proliferation

For COc1cc2c(Oc3ccc4[nH]c(C)cc4c3F)ncnc2cc1OCCCN1CCCC1 [AZD2171, 4-[(4-fluoro-2-methyl-1H-indol-5-yl)oxy]-6-methoxy-7-[3-(pyrrolidin-1-yl)propoxy]quinazoline], the “anti-tumour activity in a range of models” value (tumour models) is listed as “broad-spectrum anti-tumour activity”, the “inhibition of growth of Calu-6 tumour xenograft” value (shortened to “inhibition”) (Calu-6 tumour xenograft; 1.5 mg/kg/day, P<0.01 one-tailed t test) is listed as 49% and the “inhibition” value (Calu-6 tumour xenograft; 3 mg/kg/day, P<0.0001 one-tailed t test) is listed as 69%. The “inhibition” value (Calu-6 tumour xenograft; 6 mg/kg/day, P<0.0001 one-tailed t test) was 91%, the IC50 (HUVEC [1]) was over 500 nM and the IC50 (HUVEC [2]) was 0.4 ± 0.2 nM.
